Results on 24 compounds are retold here after patent publication US8623859B2, “Bradykinin B1 antagonists” (Evotec AG, priority 2008, dated 2014).

Counter-ions that a name gives are not always drawn.

The experiment addresses T1, human B1 (Homo sapiens, UniProt P46663).
T1 construct: host or cells: CHO-K1
T1 sequence (P46663 1-353): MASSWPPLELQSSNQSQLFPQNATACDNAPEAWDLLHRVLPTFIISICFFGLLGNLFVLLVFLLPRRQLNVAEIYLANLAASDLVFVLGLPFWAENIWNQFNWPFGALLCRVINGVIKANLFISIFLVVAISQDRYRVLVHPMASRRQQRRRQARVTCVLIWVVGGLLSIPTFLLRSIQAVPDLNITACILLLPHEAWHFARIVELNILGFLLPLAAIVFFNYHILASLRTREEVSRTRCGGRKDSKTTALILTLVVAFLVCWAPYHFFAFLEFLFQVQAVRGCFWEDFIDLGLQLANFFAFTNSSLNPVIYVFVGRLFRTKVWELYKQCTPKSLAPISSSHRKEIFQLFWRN
Kind of experiment: Calcium flux assay for Bradykinin B1 antagonist, CHO-K1 cell line expressing human B1. Format: cell-based. The conditions noted are these: CHO-K1 cells expressing human B1, agonist Lys-(Des-Arg)-Bradykinin, read-out: Potency (IC50 value against human B1). In outline:
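CHO-K1 cells expressing human B1, loaded with 5 μM Fluo-4AM (2 h, 37° C) in HEPES buffer pH 7.4 with probenecid and 0.1% BSA, were preincubated 30 min at 25° C with compound (8 concentrations, triplicate, 1% DMSO) before B1 agonist addition. Ca2+ fluorescence monitored at 538 nm; background-normalized integrated values plotted against log antagonist concentration.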
A general note: Calcium assays in cells follow changes in intracellular calcium, usually with a dye or a luminescent sensor.
Usually IC50 stands for the point on the concentration scale where inhibition reaches its midpoint. With `COc1cc(C)c(S(=O)(=O)N(C)Cc2nnc(C(=O)N3CCC(CCN4CCCC4)CC3)o2)c(C)c1` [Ex 280, 4-Methoxy-N,2,6-trimethyl-N-[(5-{[4-(2-pyrrolidin-1-ylethyl)piperidin-1-yl]carbonyl}-1,3,4-oxadiazol-2-yl)methyl]benzenesulfonamide], the IC50 lay in the range of 10 to 100 nM. The result for `COc1cc(C)c(S(=O)(=O)N(Cc2nnc(C(=O)N(C)Cc3ccc(CN4CCCC4)cc3)o2)C2CC2)c(C)c1` [Ex 281, 5-({Cyclopropyl[(4-methoxy-2,6-dimethylphenyl)sulfonyl]amino}methyl)-N-methyl-N-[4-(pyrrolidin-1-ylmethyl)benzyl]-1,3,4-oxadiazole-2-carboxamide] reads under 10 nM; that for `COc1cc(C)c(S(=O)(=O)N(C)Cc2nnc(C(=O)N(C)Cc3ccc(CN4CCC(OC)C4)cc3)o2)c(C)c1` (stereo not drawn) [Ex 282, 5-({[(4-Methoxy-2,6-dimethylphenyl)sulfonyl](methyl)amino}methyl)-N-{4-[(3-methoxypyrrolidin-1-yl)methyl]benzyl}-N-methyl-1,3,4-oxadiazole-2-carboxamide], 100 to 1000 nM. On to `COc1cc(C)c(S(=O)(=O)N(C)Cc2nnc(C(=O)N(C)Cc3ccc(CN4CCC(OC)CC4)cc3)o2)c(C)c1` [Ex 283, 5-({[(4-Methoxy-2,6-dimethylphenyl)sulfonyl](methyl)amino}methyl)-N-{4-[(4-methoxypiperidin-1-yl)methyl]benzyl}-N-methyl-1,3,4-oxadiazole-2-carboxamide], for which the IC50 lay within 10 to 100 nM.

For the compound `COc1cc(C)c(S(=O)(=O)N(C)Cc2nnc(C(=O)N(C)Cc3ccc(CN4CCCC(OC)C4)cc3)o2)c(C)c1` (stereo not drawn) [Ex 284, 5-({[(4-Methoxy-2,6-dimethylphenyl)sulfonyl](methyl)amino}methyl)-N-{4-[(3-methoxypiperidin-1-yl)methyl]benzyl}-N-methyl-1,3,4-oxadiazole-2-carboxamide], the IC50 was in the range of 100 to 1000 nM. With `COc1cc(C)c(S(=O)(=O)N(C)Cc2nnc(C(=O)N(C)Cc3ccc(CN4CCC(N(C)C)C4)cc3)o2)c(C)c1` (stereo not drawn) [Ex 285, N-(4-{[3-(Dimethylamino)pyrrolidin-1-yl]methyl}benzyl)-5-({[(4-methoxy-2,6-dimethylphenyl)sulfonyl](methyl)amino}methyl)-N-methyl-1,3,4-oxadiazole-2-carboxamide] the figure was 100 to 1000 nM; with `COc1cc(C)c(S(=O)(=O)N(C)Cc2nnc(C(=O)N(C)Cc3nc(CN4CCCC4)cs3)o2)c(C)c1` [Ex 286, 5-({[(4-Methoxy-2,6-dimethylphenyl)sulfonyl](methyl)amino}methyl)-N-methyl-N-{[4-(pyrrolidin-1-ylmethyl)-1,3-thiazol-2-yl]methyl}-1,3,4-oxadiazole-2-carboxamide], 100 to 1000 nM; with `COc1cc(C)c(S(=O)(=O)N(C)Cc2nnc(C(=O)N(C)Cc3ccc(CN4CC(OC)C4)cc3)o2)c(C)c1` [Ex 287, N-{4-[(3-Methoxyazetidin-1-yl)methyl]benzyl}-5-({[(4-methoxy-2,6-dimethylphenyl)sulfonyl](methyl)amino}methyl)-N-methyl-1,3,4-oxadiazole-2-carboxamide], 100 to 1000 nM. The result for `COc1cc(C)c(S(=O)(=O)N(C)Cc2nnc(C(=O)N(C)Cc3ccc4c(c3)CN(C)C4)o2)c(C)c1` [Ex 288, 5-({[(4-Methoxy-2,6-dimethylphenyl)sulfonyl](methyl)amino}methyl)-N-methyl-N-[(2-methyl-2,3-dihydro-1H-isoindol-5-yl)methyl]-1,3,4-oxadiazole-2-carboxamide] reads 100 to 1000 nM; that for `COc1cc(C)c(S(=O)(=O)N(C)Cc2nnc(C(=O)N(C)Cc3cccc(CN4CCCC4)c3)o2)c(C)c1` [Ex 289, 5-({[(4-Methoxy-2,6-dimethylphenyl)sulfonyl](methyl)amino}methyl)-N-methyl-N-[3-(pyrrolidin-1-ylmethyl)benzyl]-1,3,4-oxadiazole-2-carboxamide], 10 to 100 nM. For the compound `[2H]C([2H])([2H])N(Cc1nnc(C(=O)N2CCN(CC3CCN(C)CC3)CC2)o1)S(=O)(=O)c1c(C)cc(OC)cc1C` [Ex 291, 4-Methoxy-2,6-dimethyl-N-(^2H3)methyl-N-{[5-({4-[(1-methylpiperidin-4-yl)methyl]piperazin-1-yl}carbonyl)-1,3,4-oxadiazol-2-yl]methyl}benzenesulfonamide trifluoroacetate], the IC50 lay within 100 to 1000 nM. With `COc1cc(C)c(S(=O)(=O)N(C)Cc2nnc(C(=O)N3CCN(Cc4c[nH]c(C)n4)CC3)o2)c(C)c1` [Ex 292, 4-Methoxy-N,2,6-trimethyl-N-{[5-({4-[(2-methyl-1H-imidazol-4-yl)methyl]piperazin-1-yl}carbonyl)-1,3,4-oxadiazol-2-yl]methyl}benzenesulfonamide] the figure was under 10 nM; with `COc1cc(C)c(S(=O)(=O)N(C)Cc2nnc(C(=O)N3CCN(Cc4ccnc(C)c4)CC3)o2)c(C)c1` [Ex 294, 4-Methoxy-N,2,6-trimethyl-N-{[5-({4-[(2-methylpyridin-4-yl)methyl]piperazin-1-yl}carbonyl)-1,3,4-oxadiazol-2-yl]methyl}benzenesulfonamide], 10 to 100 nM; with `COc1cc(C)c(S(=O)(=O)N(C)Cc2nnc(C(=O)N3CCN(Cc4cccnc4N)CC3)o2)c(C)c1` [Ex 295, N-{[5-({4-[(2-Aminopyridin-3-yl)methyl]piperazin-1-yl}carbonyl)-1,3,4-oxadiazol-2-yl]methyl}-4-methoxy-N,2,6-trimethylbenzenesulfonamide], under 10 nM. `COc1cc(C)c(S(=O)(=O)N(C)Cc2nnc(C(=O)N3CCN(Cc4cnc5ccccc5c4)CC3)o2)c(C)c1` [Ex 296, 4-Methoxy-N,2,6-trimethyl-N-[(5-{[4-(quinolin-3-ylmethyl)piperazin-1-yl]carbonyl}-1,3,4-oxadiazol-2-yl)methyl]benzenesulfonamide]: the IC50 is under 10 nM. Regarding `COc1cc(C)c(S(=O)(=O)N(C)Cc2nnc(C(=O)N3CCN(Cc4ccc(Cl)nc4)CC3)o2)c(C)c1` [Ex 297, N-{[5-({4-[(6-Chloropyridin-3-yl)methyl]piperazin-1-yl}carbonyl)-1,3,4-oxadiazol-2-yl]methyl}-4-methoxy-N,2,6-trimethylbenzenesulfonamide], the IC50 is under 10 nM.

Regarding `COc1cc(C)c(S(=O)(=O)N(C)Cc2noc(C(=O)N(C)Cc3ccc(CN4CCCC4)cc3)n2)c(C)c1` [Ex 300, 3-({[(4-Methoxy-2,6-dimethylphenyl)sulfonyl](methyl)amino}methyl)-N-methyl-N-[4-(pyrrolidin-1-ylmethyl)benzyl]-1,2,4-oxadiazole-5-carboxamide trifluoroacetamide], the IC50 is under 10 nM. With `COc1cc(C)c(S(=O)(=O)N(C)Cc2noc(C(=O)N(C)CCc3ccc(C4=NCCN4)cc3)n2)c(C)c1` [Ex 301, N-{2-[4-(4,5-Dihydro-1H-imidazol-2-yl)phenyl]ethyl}-3-({[(4-methoxy-2,6-dimethylphenyl)sulfonyl](methyl)amino}methyl)-N-methyl-1,2,4-oxadiazole-5-carboxamide trifluoroacetamide] the figure was under 10 nM; with `COc1cc(C)c(S(=O)(=O)N(C)Cc2noc(C(=O)N3CCN(C4CCN(C)CC4)CC3)n2)c(C)c1` [Ex 302, 4-Methoxy-N,2,6-trimethyl-N-[(5-{[4-(1-methylpiperidin-4-yl)piperazin-1-yl]carbonyl}-1,2,4-oxadiazol-3-yl)methyl]benzenesulfonamide trifluoroacetate], 100 to 1000 nM. The result for `COc1cc(C)c(S(=O)(=O)N(C)Cc2noc(C(=O)N3CCN(CC4CCCN(C)C4)CC3)n2)c(C)c1` (stereo not drawn) [Ex 303, 4-Methoxy-N,2,6-trimethyl-N-{[5-({4-[(1-methylpiperidin-3-yl)methyl]piperazin-1-yl}carbonyl)-1,2,4-oxadiazol-3-yl]methyl}benzenesulfonamide trifluoroacetamide] reads 100 to 1000 nM; that for `COc1cc(C)c(S(=O)(=O)N(C)Cc2noc(C(=O)N3CCN(CCCN4CCCC4)CC3)n2)c(C)c1` [Ex 304, 4-Methoxy-N,2,6-trimethyl-N-[(5-{[4-(3-pyrrolidin-1-ylpropyl)piperazin-1-yl]carbonyl}-1,2,4-oxadiazol-3-yl)methyl]benzenesulfonamide trifluoroacetamide], 100 to 1000 nM.

As for `COc1cc(C)c(S(=O)(=O)N(C)Cc2noc(C(=O)N3CCN(CC4CCN(C)CC4)CC3)n2)c(C)c1` [Ex 305, 4-Methoxy-N,2,6-trimethyl-N-{[5-({4-[(1-methylpiperidin-4-yl)methyl]piperazin-1-yl}carbonyl)-1,2,4-oxadiazol-3-yl]methyl}benzenesulfonamide trifluoroacetate], the IC50 was under 10 nM. On to `COc1cc(C)c(S(=O)(=O)N(Cc2noc(C(=O)N(C)Cc3ccc(CN4CCCC4)cc3)n2)C2CC2)c(C)c1` [Ex 306, 3-({Cyclopropyl[(4-methoxy-2,6-dimethylphenyl)sulfonyl]amino}methyl)-N-methyl-N-[4-(pyrrolidin-1-ylmethyl)benzyl]-1,2,4-oxadiazole-5-carboxamide trifluoroacetate], for which the IC50 is under 10 nM. For the compound `COc1cc(C)c(S(=O)(=O)N(Cc2noc(C(=O)N(C)Cc3nc(CN4CCCC4)cs3)n2)C2CC2)c(C)c1` [Ex 307, 3-({Cyclopropyl[(4-methoxy-2,6-dimethylphenyl)sulfonyl]amino}methyl)-N-methyl-N-{[4-(pyrrolidin-1-ylmethyl)-1,3-thiazol-2-yl]methyl}-1,2,4-oxadiazole-5-carboxamide trifluoroacetate], the IC50 was 10 to 100 nM.
